Assay [1] in a line: Antioxidant activity, pholasin ABEL chemiluminescence test, hydroxyl radicals. The format is biochemical. As to the method:
(§1) To determine the capacity of Goldenrod for trapping free radicals (hydroxyls, halogenated derivatives, peroxynitrites and superoxide radicals), i.e. its antioxidant capacity, chemiluminescence tests dependent on pholasin ABEL®1 were used (Knight Scientific Limited) according to the manufacturer's instructions. Briefly, various concentrations of ingredients were incubated with pholasin, a well known photoprotein that emits light when it binds to free radicals. D-Mannitol, albumin, vitamin E and L-ascorbic acid were used as positive controls for determining the capacity of the extract for trapping hydroxyl radicals, halogenated derivatives, peroxynitrites and superoxides, respectively.
All the determinations were repeated 5 times and the mean values were determined. The antioxidant capacity of the ingredient is expressed as the percentage reduction of the luminescence peak of Pholasin observed during the assay in the presence and in the absence of the active ingredient ±SD, with the untreated control represented at 0%.

The target in assay [2] is T1, MMP3 (Homo sapiens, UniProt P08254).
T1 construct: purchased Biomol SE-109
Briefly: MMP3 activity by fluorometric assay. The format is biochemical. The settings on record: 5 mM; percentage activity relative to untreated control (100%). Here is the method: (§2) To evaluate the effect of Goldenrod on the activity of MMP3 and MMP9, the enzymes (Biomol SE-109 and SE-244, respectively) were incubated with different concentrations of Goldenrod, each concentration in quintuplicate. The enzymatic reaction was induced by adding the fluorescent substrate specific to each MMP enzyme, dissolved in DMSO (Bachem H-2300, M-2055). The enzymatic reaction was monitored by spectrophotometry for one hour and the fluorescence was measured after excitation/emission at wavelengths of 360/460 nm for MMP3, or 320/405 nm for MMP9. The results are expressed as the mean of the replicates ±SD and are shown in […] activity of the MMPs relative to the untreated control, which represents 100%. As control, EDTA was used for inhibiting the activity of the MMPs.

Assay [3] addresses T2, MMP9 (Homo sapiens, UniProt P14780).
T2 construct: purchased Biomol SE-244
In words: MMP9 activity by fluorometric assay. The following applies: 5 mM; percentage activity relative to untreated control (100%). The format is biochemical. Here is the method: as §2

Assay [4] is described as follows: Antioxidant activity, pholasin ABEL chemiluminescence test, superoxides. The format is biochemical. As to the method:
as §1, with “respectively. […] The antioxidant capacity of the ingredient is expressed as the percentage reduction of the luminescence peak of Pholasin observed during the assay in the presence and in the absence of the active ingredient ±SD, with the untreated control represented at 0%.” for “respectively.”

For assay [5], the system named is Primary human keratinocytes (KC). In words: Primary human keratinocytes (KC) under Paraquat stress: cell counts and qPCR of MMP1, p16INK4a. The following applies: for Mean number of cells counted, corrected for the cell division factor: 37500 cells seeded on day 0. The format is cell-based. Here is the method:
Primary human keratinocytes derived from neonatal foreskin of individual donors (KC) were purchased from CellSystems (Troisdorf, Germany) and cultured in a KC growth medium (KGM, Clonetics, Gaithersburg, USA) supplemented with 0.1 ng/ml of recombinant human EGF, 5 μg/ml insulin, 0.5 μg/ml of hydrocortisone, 0.4% of bovine pituitary extract, 50 μg/ml of gentamicin and 50 ng/ml of amphotericin B. The RNA was isolated using the RNeasy 96 system ([…]), and 900 ng of total RNA was reverse-transcribed with the iScript cDNA Synthesis Kit (Biorad). qPCR was performed using the LightCycler 480 and the LightCycler 480 SYBR Green I Master (Roche, Basle, Switzerland). Expression of the target genes was normalized relative to expression of β-2 microglobulin. The sequences of the primers are as follows (5′-3′): B2Mf […] (SEQ ID NO:11); B2Mr: […] (SEQ ID NO:12);
The cells are seeded for the stress experiments on day 0 at 1500 cells/cm^2 and treated on days 2, 5 and 6 with Paraquat (PQ) (80 μm) for 24 hours. Treatment with Goldenrod was carried out on days 1 and 4 on untreated cells or cells treated with Paraquat.

We go through 4 molecules from patent publication US10206867B2, “Alcoholic extract of aerial parts of Solidago virgaurea subsp. alpestris, method of production thereof, and cosmetic or dermatological composition containing it” (CHANEL PARFUMS BEAUTE, priority 2015, dated 2019).

Each structure is given as a SMILES string.

T2 sequence (P14780 107-444 limits assumed): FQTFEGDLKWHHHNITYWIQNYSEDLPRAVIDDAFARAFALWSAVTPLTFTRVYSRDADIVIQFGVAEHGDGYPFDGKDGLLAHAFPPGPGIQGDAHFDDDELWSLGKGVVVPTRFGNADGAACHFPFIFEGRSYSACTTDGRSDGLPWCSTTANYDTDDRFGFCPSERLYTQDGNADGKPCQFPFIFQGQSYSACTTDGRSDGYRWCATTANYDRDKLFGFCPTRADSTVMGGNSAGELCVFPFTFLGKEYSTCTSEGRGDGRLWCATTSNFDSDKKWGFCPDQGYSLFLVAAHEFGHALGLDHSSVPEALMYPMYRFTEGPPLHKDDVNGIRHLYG
T1 sequence (P08254 100-272 limits assumed): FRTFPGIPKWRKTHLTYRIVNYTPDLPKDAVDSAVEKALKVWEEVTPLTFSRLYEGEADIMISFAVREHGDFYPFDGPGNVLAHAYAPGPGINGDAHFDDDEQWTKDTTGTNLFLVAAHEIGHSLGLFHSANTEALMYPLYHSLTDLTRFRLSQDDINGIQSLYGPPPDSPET

Turning to `OC[C@@H](O)[C@@H](O)[C@H](O)[C@H](O)CO` [D-Mannitol], the Mean % inhibition in assay [1] (0.8 mM) stood at 59.9 ± 3.6%; in assay [1] (1 mM) it was 76.1 ± 14%; in assay [1] (2 mM) it was 82.6 ± 14.8%; in assay [1] (4 mM), 92.6 ± 4.7%; in assay [1] (6 mM), 95.1 ± 0.3%.
`O=C(O)CN(CCN(CC(=O)O)CC(=O)O)CC(=O)O` [EDTA]: in assay [2], the “Enzyme activity MMP3” value is given as 4.3 ± 5.3%. The “Enzyme activity MMP9” value in assay [3] is on record as 0 ± 0.9%.
As to `O=C1O[C@H]([C@@H](O)CO)C(O)=C1O` [L-ascorbic acid], the Mean % inhibition in assay [4] (10 μmol/L) came to 26.4 ± 3.5%; in assay [4] (20 μmol/L), 43.9 ± 1.4%; in assay [4] (40 μmol/L), 64.8 ± 0.8%; in assay [4] (60 μmol/L), 75.3 ± 1%; in assay [4] (80 μmol/L) it was 82.4 ± 1.8%.
On to `C[n+]1ccc(-c2cc[n+](C)cc2)cc1` [Paraquat], for which the “Mean number of cells counted, corrected for the cell division factor” value in assay [5] (D3, single treatment) was 405,000 cells. Besides, in assay [5] (D7, single treatment), the “Mean number of cells counted, corrected for the cell division factor” value was 546,666 cells. Also, in assay [5] (treatment with Paraquat alone), the “Expression of MMP1” value was “induces” and the “Expression of p16INK4a” value was “induces”.
